Laboratory results from patent US11896009B2, “Bioactive composition for improving stress tolerance of plants” (FYTEKO, priority 2015, dated 2024).

Assay: Antioxidant test, DPPH radical scavenging (Example 9)
Format: biochemical
Method: The antioxidant activity of oligoferulates prepared as described in example 1, ferulic acid (W518301, Sigma-Aldrich), gallic acid (27645, Sigma-Aldrich) and ascorbic acid (A0278, Sigma-Aldrich) was determined using a method based on the scavenging of the stable radical 2,2-diphenyl-1-picrylhydrazyl (DPPH) (Brand Williams et al, Food Sci Technol-Lebens Wissens Technol. 1995; 28:25-30) and the results expressed as IC50 (concentration of antioxidant which reduces the free radical DPPH⋅ about 50%). This method is frequently used to predict the antioxidant activities of different molecules.

| Compound | antioxidant activity IC50 (concentration which reduces the free radical DPPH about 50%) |
| --- | --- |
| O=C1O[C@H]([C@@H](O)CO)C(O)=C1O [ascorbic acid] | 5 µg/mL |
| COc1cc(/C=C/C(=O)O)ccc1O [ferulic acid] | 25 µg/mL |
| O=C(O)c1cc(O)c(O)c(O)c1 [gallic acid] | 2 µg/mL |
